In series [1] the target is CYP2D6 (Homo sapiens (Human), UniProt P10635). Put plainly: CYP450 inhibition activity assay (Vivid kit) CYP2D6. It counts as in vitro ADME. Conditions: CYP450 subtype (μM) 2D6 (IC50).
For series [2] the following is noted: rat, in vivo.
The target of series [3] is CYP1A2 (Homo sapiens (Human), UniProt P05177). Put plainly: CYP450 inhibition activity assay (Vivid kit) CYP1A2. Format: in vitro ADME. The settings on record: CYP450 subtype (μM) 1A2 (IC50).
Series [4] concerns the target CYP3A4-T (Homo sapiens (Human), UniProt P08684). Put plainly: CYP450 inhibition activity assay (Vivid kit) CYP3A4-T. Conditions: CYP450 subtype (μM) 3A4-T (IC50). Here is the method:
(§1) VividR CYP450 Screening Kits can be used to evaluate the effects on CYP450 subtypes (CYP1A2, CYP2D6, CYP2C9, CYP2C19, CYP3A4-T and CYP3A4-M) and the substrate VividR in the kit can be metabolizd to a product which can emit strong fluorescence in an aqueous solution by specific CYP450 enzymes.
(§2) 1. The compounds to be tested and positive compound were added to corresponding wells and DMSO was added to control wells.
(§3) 2. CYP450 enzyme was added to the compounds to be tested, positive compound and DMSO control wells. The enzyme dilution was used to replace enzyme and added to DMSO wells as test background. The mixture was vibrated and mixed for 1 minute, and then incubated at room temperature for 20 minutes.
(§4) 3. NADP^+ regeneration system and the substrate were added to initiate the reaction and incubated at room temperature for 60 minutes.

Series [5] has as its target hERG (Homo sapiens (Human), UniProt Q12809).
Experimental: CHO-hERG cells which have been incubated overnight were added with sample buffer and incubated for 90 minutes at room temperature in darkness.
The sample buffer was removed and assay buffer was added.
The compound is added to the cell plate and incubated for 20 minutes in darkness.
Cell plate was placed into FDSS. The fluorescence signal was recorded every second for 10 seconds. Exciting buffer was added to the cells at the 10th second and the fluorescence signal was recorded every second for 180 seconds
The target in series [6] is CYP3A4-M (Homo sapiens (Human), UniProt P08684). Put plainly: CYP450 inhibition activity assay (Vivid kit) CYP3A4-M. The settings on record: CYP450 subtype (μM) 3A4-M (IC50). The protocol:
as §1, §2, §3, §4

Series [7] has as its target CYP2C19 (Homo sapiens (Human), UniProt P33261). Kind of series: CYP450 inhibition activity assay (Vivid kit) CYP2C19. Conditions: CYP450 subtype (μM) 2C19 (IC50). Format: in vitro ADME.
In series [8] the target is CCR5 (Homo sapiens (Human), UniProt P51681). Put plainly: Calcium flux inhibition experiment. It counts as cell-based. The settings on record: for IC50: HEK293/CCR5-Gα16 cell line, calcium flux, read-out: CCR5 IC50; for calcium influx inhibition effect in words, versus positive control compounds: conclusion from Table 1.
Series [9] concerns CCR5 protein. Put plainly: Thermal stability of protein test (CPM-assay). Format: binding. The settings on record: for protein stability effect in words, versus positive control compound: conclusion from Table 2; for Tm (° C.): thermal stability of CCR5 protein with compound, CPM dye. A digest of the protocol:
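Purified, concentrated CCR5 protein (3–5 μg) was mixed with CPM dye and held 20 min at room temperature. It was then heated from 4 to 90 °C at 1 °C/min while fluorescence (excitation 387 nm, emission 436 nm) from CPM binding to exposed free cysteines was recorded. Tm is the midpoint of the signal change.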

Read-outs that look alike come from different tables or passages of the source.

One may read the IC50 as the concentration needed to halve the response being measured.

CYP2D6, sequence (P10635 whole entry): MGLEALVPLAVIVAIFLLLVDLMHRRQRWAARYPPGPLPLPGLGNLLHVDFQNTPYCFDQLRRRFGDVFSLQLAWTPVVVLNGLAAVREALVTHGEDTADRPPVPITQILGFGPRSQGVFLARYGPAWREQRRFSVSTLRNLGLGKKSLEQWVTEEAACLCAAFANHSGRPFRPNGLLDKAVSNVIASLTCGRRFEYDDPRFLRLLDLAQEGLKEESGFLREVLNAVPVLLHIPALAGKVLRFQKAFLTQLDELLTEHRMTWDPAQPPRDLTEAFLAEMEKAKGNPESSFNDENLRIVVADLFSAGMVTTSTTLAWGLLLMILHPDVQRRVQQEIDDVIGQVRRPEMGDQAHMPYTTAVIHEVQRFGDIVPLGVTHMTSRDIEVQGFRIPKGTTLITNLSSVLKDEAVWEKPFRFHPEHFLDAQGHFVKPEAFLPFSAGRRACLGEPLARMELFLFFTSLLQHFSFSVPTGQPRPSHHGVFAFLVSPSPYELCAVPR
CCR5, sequence (P51681 whole entry): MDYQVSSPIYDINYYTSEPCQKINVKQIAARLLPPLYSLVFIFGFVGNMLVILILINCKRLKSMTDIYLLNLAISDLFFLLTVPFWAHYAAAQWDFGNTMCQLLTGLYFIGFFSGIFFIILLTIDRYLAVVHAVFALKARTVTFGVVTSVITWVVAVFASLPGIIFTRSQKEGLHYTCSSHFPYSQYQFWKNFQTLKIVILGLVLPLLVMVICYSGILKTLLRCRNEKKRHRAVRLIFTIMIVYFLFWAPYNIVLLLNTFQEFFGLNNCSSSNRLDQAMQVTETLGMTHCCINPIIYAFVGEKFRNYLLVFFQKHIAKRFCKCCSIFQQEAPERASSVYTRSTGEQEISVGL
CYP2C19, sequence (P33261 whole entry): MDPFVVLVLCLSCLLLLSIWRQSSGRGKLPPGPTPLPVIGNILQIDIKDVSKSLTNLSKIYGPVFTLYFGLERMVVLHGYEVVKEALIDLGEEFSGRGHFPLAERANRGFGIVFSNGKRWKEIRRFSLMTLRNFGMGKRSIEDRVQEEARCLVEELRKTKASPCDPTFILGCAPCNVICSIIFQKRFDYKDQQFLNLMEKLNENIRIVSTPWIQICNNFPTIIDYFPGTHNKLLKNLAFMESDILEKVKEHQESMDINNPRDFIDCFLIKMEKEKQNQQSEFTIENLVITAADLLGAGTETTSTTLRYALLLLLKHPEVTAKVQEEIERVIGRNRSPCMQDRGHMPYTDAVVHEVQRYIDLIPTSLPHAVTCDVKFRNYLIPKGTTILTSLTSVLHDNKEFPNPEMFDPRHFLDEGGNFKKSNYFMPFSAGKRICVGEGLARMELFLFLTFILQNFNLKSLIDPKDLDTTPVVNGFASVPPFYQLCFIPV
hERG, sequence (Q12809 whole entry): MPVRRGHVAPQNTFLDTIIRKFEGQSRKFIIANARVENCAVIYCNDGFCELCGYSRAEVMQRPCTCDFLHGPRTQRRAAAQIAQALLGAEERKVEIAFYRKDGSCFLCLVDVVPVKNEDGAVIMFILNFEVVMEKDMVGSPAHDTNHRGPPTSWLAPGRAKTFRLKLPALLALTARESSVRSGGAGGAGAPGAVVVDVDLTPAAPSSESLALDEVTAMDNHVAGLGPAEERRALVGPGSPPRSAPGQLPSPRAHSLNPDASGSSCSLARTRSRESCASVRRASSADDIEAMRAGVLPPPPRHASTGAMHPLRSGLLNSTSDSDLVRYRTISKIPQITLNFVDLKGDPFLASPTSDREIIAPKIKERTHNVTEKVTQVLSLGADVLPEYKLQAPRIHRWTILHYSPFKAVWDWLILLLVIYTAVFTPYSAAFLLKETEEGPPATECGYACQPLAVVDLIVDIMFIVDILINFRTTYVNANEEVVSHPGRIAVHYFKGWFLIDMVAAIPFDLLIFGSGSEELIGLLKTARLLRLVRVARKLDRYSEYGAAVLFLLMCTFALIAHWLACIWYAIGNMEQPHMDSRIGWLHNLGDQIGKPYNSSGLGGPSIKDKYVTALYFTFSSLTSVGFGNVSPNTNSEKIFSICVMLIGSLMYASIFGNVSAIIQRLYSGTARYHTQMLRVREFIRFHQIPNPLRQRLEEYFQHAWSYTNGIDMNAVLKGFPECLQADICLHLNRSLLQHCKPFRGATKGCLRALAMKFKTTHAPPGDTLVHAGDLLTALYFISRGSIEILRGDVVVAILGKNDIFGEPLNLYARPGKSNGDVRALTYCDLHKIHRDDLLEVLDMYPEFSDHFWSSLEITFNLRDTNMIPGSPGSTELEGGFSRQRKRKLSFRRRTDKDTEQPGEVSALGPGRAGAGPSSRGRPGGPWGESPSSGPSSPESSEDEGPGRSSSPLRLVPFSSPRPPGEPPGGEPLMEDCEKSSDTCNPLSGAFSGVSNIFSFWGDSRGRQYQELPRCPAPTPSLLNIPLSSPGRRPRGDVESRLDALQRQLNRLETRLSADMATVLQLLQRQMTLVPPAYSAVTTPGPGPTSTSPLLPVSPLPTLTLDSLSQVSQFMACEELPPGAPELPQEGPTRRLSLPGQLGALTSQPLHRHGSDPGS
CYP3A4-T, sequence (P08684 whole entry): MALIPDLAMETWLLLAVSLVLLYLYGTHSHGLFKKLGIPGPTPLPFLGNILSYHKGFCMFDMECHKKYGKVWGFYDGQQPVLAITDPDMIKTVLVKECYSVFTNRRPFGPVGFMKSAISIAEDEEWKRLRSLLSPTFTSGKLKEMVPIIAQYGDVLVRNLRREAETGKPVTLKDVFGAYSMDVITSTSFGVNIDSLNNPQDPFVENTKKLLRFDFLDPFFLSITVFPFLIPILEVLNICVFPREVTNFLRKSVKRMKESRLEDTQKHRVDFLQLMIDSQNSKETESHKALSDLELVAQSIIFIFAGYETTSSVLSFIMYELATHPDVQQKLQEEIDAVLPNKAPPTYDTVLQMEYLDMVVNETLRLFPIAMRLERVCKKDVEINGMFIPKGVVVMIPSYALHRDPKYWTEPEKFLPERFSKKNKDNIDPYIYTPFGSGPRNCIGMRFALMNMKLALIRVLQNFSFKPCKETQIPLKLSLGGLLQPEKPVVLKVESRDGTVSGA
CYP3A4-M, sequence (P08684 whole entry): as above
CYP1A2, sequence (P05177 whole entry): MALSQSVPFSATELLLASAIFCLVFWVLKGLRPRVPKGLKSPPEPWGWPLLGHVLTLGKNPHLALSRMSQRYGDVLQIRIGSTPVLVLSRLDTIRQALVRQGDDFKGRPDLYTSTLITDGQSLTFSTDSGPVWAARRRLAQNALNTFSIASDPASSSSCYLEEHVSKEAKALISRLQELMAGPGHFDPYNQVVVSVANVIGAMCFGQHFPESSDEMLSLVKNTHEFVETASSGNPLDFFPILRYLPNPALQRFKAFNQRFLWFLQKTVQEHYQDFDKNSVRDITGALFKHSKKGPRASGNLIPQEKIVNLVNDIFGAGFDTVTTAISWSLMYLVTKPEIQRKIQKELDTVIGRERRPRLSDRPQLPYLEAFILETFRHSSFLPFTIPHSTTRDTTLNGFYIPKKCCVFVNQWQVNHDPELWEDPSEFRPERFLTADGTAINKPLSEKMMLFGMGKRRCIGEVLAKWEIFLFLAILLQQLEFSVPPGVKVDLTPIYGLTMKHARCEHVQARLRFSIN

For the compound `Cc1ccc([C@H](CCN2C3CCC2CC(n2c(C)nnc2C(C)C)C3)NC(=O)C2CCC(F)(F)CC2)s1` (stereo partly drawn) [Compound 29, 4,4-difluoro-N-[(1S)-3-[exo-3-(3-isopropyl-5-methyl-4H-1,2,4-triazol-4-yl)-8-azabicyclo[3.2.1]octane-8-yl]-1-(5-methylthiophen-2-yl)propyl]cyclohexane-1-carboxamide], the IC50 in series [1] was above 25 µM; in series [3], above 25 µM; in [4], 23.4 µM; in series [5] it was 8.44 µM; in series [6], 10.9 µM; in [7] it was above 25 µM. The “AUC0-t ng/mL * h” value in series [2] (male, 10 mg/kg) worked out at 2330.2 ng·h/mL; in [2] (male, po, 20 mg/kg) it was 1870.7 ng·h/mL. Besides, in [2] (10 mg/kg), the “CLz” value came to 71.5 mL/min/kg. In addition, in series [5], the “hERG inhibition activity in words, versus positive control compounds” value is given as “better that those of positive control compounds”.

Regarding `Cc1nnc(C(C)C)n1C1CC2CCC(C1)N2CC[C@H](NC(=O)C1CCCCC1)c1cccs1` (stereo partly drawn) [Compound 16], the IC50 in series [8] was 0.00223 µM; in series [1], 15.1 µM; in [3] it was above 25 µM; in [4] it was 21.7 µM; in series [5] (human), 3.02 µM; in series [6], 12.3 µM. The IC50 in series [7] is above 25 µM. The “calcium influx inhibition effect in words, versus positive control compounds” value in series [8] is “better than the positive control compounds”. In addition, the “CLz” value in [2] (male, 10 mg/kg) is 32.7 mL/min/kg. In [2] (male, po, 20 mg/kg), the “AUC0-t ng/mL * h” value is 1512.3 ng·h/mL. Further, the “protein stability effect in words, versus positive control compound” value in series [9] was “comparable with the positive control compound”. In addition, in series [9], the “Tm (° C.)” value turned out to be 71.32 °C.

For `Cc1nnc(C(C)C)n1C1CCN(CC[C@H](NC(=O)C2CCCC2)c2cccs2)CC1` [Compound 17, N-[(1S)-3-[4-(3-isopropyl-5-methyl-4H-1,2,4-triazol-4-yl)-piperidin-1-yl]-1-(thiophen-2-yl)propyl]cyclopentane-1-carboxamide], the IC50 in series [8] is 0.00255 µM; in [1], above 25 µM; in [3] it was above 25 µM; in [4], above 25 µM; in series [6], above 25 µM; in [7], above 25 µM. Moreover, the “calcium influx inhibition effect in words, versus positive control compounds” value in series [8] is given as “better than the positive control compounds”. Moreover, in series [9], the “Tm (° C.)” value turned out to be 66.97 °C.

With `Cc1nnc(C(C)C)n1C1CC2CCC(C1)N2CC[C@H](NC(=O)C1CCC(F)(F)CC1)c1ccsc1` (stereo partly drawn) [Compound 22, 4,4-difluoro-N-[(1S)-3-[exo-3-(3-isopropyl-5-methyl-4H-1,2,4-triazol-4-yl)-8-azabicyclo[3.2.1]octane-8-yl]-1-(thiophen-3-yl)propyl]cyclohexane-1-carboxamide], the IC50 was 0.00105 µM in series [8]; above 25 µM in series [1]; above 25 µM in series [3]; above 25 µM in series [4]; above 25 µM in [6]; above 25 µM in series [7]. Besides, in series [8], the “calcium influx inhibition effect in words, versus positive control compounds” value is on record as “better than the positive control compounds”. Also, in [2] (male, 10 mg/kg), the “CLz” value amounted to 40 mL/min/kg. For the same compound, the “AUC0-t ng/mL * h” value in [2] (male, po, 20 mg/kg) was 1206 ng·h/mL. Besides, the “Tm (° C.)” value in [9] came out at 68.21 °C. The “hERG inhibition activity in words, versus positive control compounds” value in [5] is “better that those of positive control compounds”.

Regarding `Cc1nnc(C(C)C)n1C1CC2CCC(C1)N2CC[C@H](NC(=O)C1CCCC1)c1cccs1` (stereo partly drawn) [Compound 18, N-[(1S)-3-[exo-3-(3-isopropyl-5-methyl-4H-1,2,4-triazol-4-yl)-8-azabicyclo[3.2.1]octane-8-yl]-1-(thiophen-2-yl)propyl]cyclopentane-1-carboxamide], the IC50 is 0.00373 µM in series [8]; 16.8 µM in [1]; above 25 µM in [3]; above 25 µM in series [4]; above 25 µM in series [6]; above 25 µM in series [7]. Besides, the “calcium influx inhibition effect in words, versus positive control compounds” value in series [8] was “better than the positive control compounds”. Moreover, in series [2] (male, 10 mg/kg), the “CLz” value turned out to be 104 mL/min/kg. The “AUC0-t ng/mL * h” value in series [2] (male, po, 20 mg/kg) was 2801.1 ng·h/mL. Further, in series [9], the “protein stability effect in words, versus positive control compound” value is “comparable with the positive control compound”. Further, in [9], the “Tm (° C.)” value was 71.73 °C.

On to `Cc1nnc(C(C)C)n1C1CC2CCC(C1)N2CC[C@H](NC(=O)C1CCC(F)(F)CC1)c1cccs1` (stereo partly drawn) [Compound 14, 4,4-difluoro-N-[(1S)-3-[exo-3-(3-isopropyl-5-methyl-4H-1,2,4-triazol-4-yl)-8-azabicyclo[3.2.1]octane-8-yl]-1-(thiophen-2-yl)propyl]cyclohexane-1-carboxamide], for which, in series [8], the IC50 was 0.00233 µM and the “calcium influx inhibition effect in words, versus positive control compounds” value is on record as “better than the positive control compounds”. In addition, in series [2] (male, 10 mg/kg), the “CLz” value stood at 23.7 mL/min/kg. Besides, the “AUC0-t ng/mL * h” value in [2] (male, po, 20 mg/kg) was 1108 ng·h/mL. The “Tm (° C.)” value in series [9] was 68.10 °C.
